From US8614327B2 (Vertex Pharmaceuticals Incorporated, priority 2004, dated 2013)

Molecular target: T1, ΔF508-CFTR (Homo sapiens, UniProt P13569, DEL508-508)
T1 construct: expressed in transfected cells
Test: Membrane potential optical (FRET/VIPR) assay, identification of potentiator compounds
Assay type: cell-based
Conditions: Table 3, assay not given; for % Activity: relative efficacy
How it was run: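 NIH3T3 mouse fibroblasts stably expressing ΔF508-CFTR, temperature-corrected 24 h at 27° C., read on VIPR by FRET between CC2-DMPE and DiSBAC2(3). Potentiators identified in a double-addition format, first adding chloride-free (gluconate) medium with or without compound.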

T1 sequence (P13569 with tags, fused parts or gaps DEL508-508): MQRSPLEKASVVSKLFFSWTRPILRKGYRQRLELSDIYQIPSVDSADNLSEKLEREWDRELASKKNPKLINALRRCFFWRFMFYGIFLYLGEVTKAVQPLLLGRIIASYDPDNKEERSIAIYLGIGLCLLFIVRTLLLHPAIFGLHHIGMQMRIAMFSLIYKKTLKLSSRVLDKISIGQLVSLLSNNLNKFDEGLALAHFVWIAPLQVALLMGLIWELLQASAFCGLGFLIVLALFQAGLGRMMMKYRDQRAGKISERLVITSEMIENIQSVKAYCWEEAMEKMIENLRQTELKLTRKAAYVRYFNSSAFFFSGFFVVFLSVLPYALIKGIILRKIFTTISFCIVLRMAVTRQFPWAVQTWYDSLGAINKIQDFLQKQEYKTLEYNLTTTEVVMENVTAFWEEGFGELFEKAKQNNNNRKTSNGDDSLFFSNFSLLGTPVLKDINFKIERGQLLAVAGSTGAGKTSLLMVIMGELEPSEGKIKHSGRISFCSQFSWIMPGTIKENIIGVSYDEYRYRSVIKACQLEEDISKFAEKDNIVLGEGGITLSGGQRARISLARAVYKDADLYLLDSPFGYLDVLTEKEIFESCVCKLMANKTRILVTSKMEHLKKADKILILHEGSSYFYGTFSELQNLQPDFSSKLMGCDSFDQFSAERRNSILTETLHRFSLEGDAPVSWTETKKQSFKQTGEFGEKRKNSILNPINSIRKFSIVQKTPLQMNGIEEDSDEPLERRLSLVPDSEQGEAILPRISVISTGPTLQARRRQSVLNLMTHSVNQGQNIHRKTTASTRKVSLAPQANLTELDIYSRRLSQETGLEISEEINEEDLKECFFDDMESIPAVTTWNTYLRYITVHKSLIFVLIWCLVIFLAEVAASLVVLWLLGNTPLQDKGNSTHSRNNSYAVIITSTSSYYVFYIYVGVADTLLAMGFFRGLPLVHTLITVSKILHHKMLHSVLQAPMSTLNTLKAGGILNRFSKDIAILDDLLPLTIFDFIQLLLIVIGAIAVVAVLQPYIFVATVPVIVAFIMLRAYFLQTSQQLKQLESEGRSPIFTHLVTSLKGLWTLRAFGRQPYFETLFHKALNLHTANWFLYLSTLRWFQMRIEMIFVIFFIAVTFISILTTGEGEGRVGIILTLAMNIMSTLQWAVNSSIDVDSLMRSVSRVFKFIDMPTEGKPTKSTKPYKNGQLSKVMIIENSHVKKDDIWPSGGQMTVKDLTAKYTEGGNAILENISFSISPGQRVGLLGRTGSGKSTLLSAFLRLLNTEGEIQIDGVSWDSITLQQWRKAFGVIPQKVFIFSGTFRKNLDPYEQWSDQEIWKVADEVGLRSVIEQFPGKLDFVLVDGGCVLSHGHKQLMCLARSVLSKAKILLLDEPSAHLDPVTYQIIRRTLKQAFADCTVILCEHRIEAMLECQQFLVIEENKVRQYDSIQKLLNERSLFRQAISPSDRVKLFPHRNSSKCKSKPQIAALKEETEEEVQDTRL

| SMILES | EC50 | % Activity |
| --- | --- | --- |
| O=C(Nc1ccc2nccnc2c1)c1c[nH]c2ccccc2c1=O [Compound 443, 4-oxo-N-quinoxalin-6-yl-1H-quinoline-3-carboxamide] | 25 to 60 µM | + (<25%) |
| O=C(Nc1ccc(C(F)(F)F)cc1Cl)c1c[nH]c2ccccc2c1=O [Compound 532, N-[2-chloro-4-(trifluoromethyl)phenyl]-4-oxo-1H-quinoline-3-carboxamide] | < 10 µM | ++ (between 25% to 100%) |
| CCc1cccc(C(C)C)c1NC(=O)c1c[nH]c2ccccc2c1=O [Compound 314, N-(2-ethyl-6-isopropyl-phenyl)-4-oxo-1H-quinoline-3-carboxamide] | – | ++ (between 25% to 100%) |
| CCC(C)c1c[nH]c2cc(NC(=O)c3c[nH]c4ccccc4c3=O)ccc12 (stereo not shown) [Compound 259, 4-oxo-N-(3-sec-butyl-1H-indol-6-yl)-1H-quinoline-3-carboxamide] | < 10 µM | ++ (between 25% to 100%) |
| Cc1cc(N2CCCC2)ccc1NC(=O)c1c[nH]c2ccccc2c1=O [Compound 615, N-(2-methyl-4-pyrrolidin-1-yl-phenyl)-4-oxo-1H-quinoline-3-carboxamide] | < 10 µM | +++ (>100%) |
| O=C(Nc1ccc2c(c1)NCC2)c1c[nH]c2ccccc2c1=O [Compound 258, N-Indolin-6-yl-4-oxo-1H-quinoline-3-carboxamide] | < 10 µM | ++ (between 25% to 100%) |
| O=C(Nc1ccccc1-c1ccoc1)c1c[nH]c2ccccc2c1=O [Compound 123, N-[2-(3-furyl)phenyl]-4-oxo-1H-quinoline-3-carboxamide] | – | ++ (between 25% to 100%) |
| N#CCc1ccc(-c2ccccc2NC(=O)c2c[nH]c3ccccc3c2=O)cc1 [Compound 333, N-[2-[4-(cyanomethyl)phenyl]phenyl]-4-oxo-1H-quinoline-3-carboxamide] | – | ++ (between 25% to 100%) |
| COC(=O)[C@@H]1CCCCN1c1ccc(NC(=O)c2c[nH]c3ccccc3c2=O)c(C(F)(F)F)c1 [Compound 715, (S)-methyl 1-(4-(4-oxo-1,4-dihydroquinoline-3-carboxamido)-3-(trifluoromethyl)phenyl)piperidine-2-carboxylate] | < 10 µM | ++ (between 25% to 100%) |
| CC(C)c1ccc(-c2cc3cc[nH]c3cc2NC(=O)c2c[nH]c3ccccc3c2=O)cc1 [Compound 342, N-[5-(4-isopropylphenyl)-1H-indol-6-yl]-4-oxo-1H-quinoline-3-carboxamide] | < 10 µM | ++ (between 25% to 100%) |
| CC(C)(C)c1cc(C(C)(C)C)c(NC(=O)c2c[nH]c3c(C#N)cccc3c2=O)cc1O [Compound 505, 8-cyano-N-(5-hydroxy-2,4-ditert-butyl-phenyl)-4-oxo-1H-quinoline-3-carboxamide] | < 10 µM | + (<25%) |
| CC(C)(C)OC(=O)N1CCc2c(cccc2NC(=O)c2c[nH]c3ccccc3c2=O)C1 [Compound 427, 5-[(4-oxo-1H-quinolin-3-yl)carbonylamino]-1,2,3,4-tetrahydroisoquinoline-2-carboxylic acid tert-butyl ester] | < 10 µM | ++ (between 25% to 100%) |
| CCn1cc(C(=O)Nc2ccccc2)c(=O)c2cc(OC)ccc21 [Compound 480, 1-ethyl-6-methoxy-4-oxo-N-phenyl-1H-quinoline-3-carboxamide] | 25 to 60 µM | + (<25%) |
| O=C(Nc1ccc(C(F)(F)F)cc1N1CCCCC1)c1c[nH]c2ccccc2c1=O [Compound 514, 4-oxo-N-[2-(1-piperidyl)-4-(trifluoromethyl)phenyl]-1H-quinoline-3-carboxamide] | < 10 µM | ++ (between 25% to 100%) |
| O=C(Nc1cccc2c1CCCC2)c1c[nH]c2ccccc2c1=O [Compound 286, 1,4-dihydro-N-(1,2,3,4-tetrahydronaphthalen-5-yl)-4-oxoquinoline-3-carboxamide] | < 10 µM | +++ (>100%) |
| CC(C)c1ccc(NC(=O)c2c[nH]c3ccccc3c2=O)cc1 [Compound 425, N-(4-isopropylphenyl)-4-oxo-1H-quinoline-3-carboxamide] | – | ++ (between 25% to 100%) |
| O=C(Nc1ccc(C(F)(F)F)nc1)c1c[nH]c2ccccc2c1=O [Compound 197, 4-oxo-N-[6-(trifluoromethyl)-3-pyridyl]-1H-quinoline-3-carboxamide] | 25 to 60 µM | + (<25%) |

| SMILES | EC50 | % Activity |
| --- | --- | --- |
| Cc1ccc(-c2ccccc2NC(=O)c2c[nH]c3ccccc3c2=O)cc1 [Compound 181, 4-oxo-N-[2-(p-tolyl)phenyl]-1H-quinoline-3-carboxamide] | < 10 µM | ++ (between 25% to 100%) |
| CC(C)c1ccc(NC(=O)c2c[nH]c3ccccc3c2=O)cc1O [Compound 575, N-(3-hydroxy-4-isopropyl-phenyl)-4-oxo-1H-quinoline-3-carboxamide] | < 10 µM | ++ (between 25% to 100%) |
| CC(=O)c1ccc(-c2ccccc2NC(=O)c2c[nH]c3ccccc3c2=O)s1 [Compound 174, N-[2-(5-acetyl-2-thienyl)phenyl]-4-oxo-1H-quinoline-3-carboxamide] | < 10 µM | ++ (between 25% to 100%) |
| O=C(Nc1cc(NS(=O)(=O)CCN2CCCCC2)cc(C(F)(F)F)c1)c1c[nH]c2ccccc2c1=O [Compound 318, 4-Oxo-N-[3-[2-(1-piperidyl)ethylsulfonylamino]-5-(trifluoromethyl)phenyl]-1H-quinoline-3-carboxamide] | 10 to 25 µM | ++ (between 25% to 100%) |
| O=C(Nc1ccc2cc(C(F)(F)F)[nH]c2c1)c1c[nH]c2cccc(O)c2c1=O [Compound 693, 5-hydroxy-4-oxo-N-[2-(trifluoromethyl)-1H-indol-6-yl]-1H-quinoline-3-carboxamide] | < 10 µM | ++ (between 25% to 100%) |
| CCCc1ccccc1NC(=O)c1c[nH]c2ccccc2c1=O [Compound 16, 4-oxo-N-(2-propylphenyl)-1H-quinoline-3-carboxamide] | < 10 µM | ++ (between 25% to 100%) |
| O=C(Nc1ccccc1-c1cccc(Cl)c1Cl)c1c[nH]c2ccccc2c1=O [Compound 171, N-[2-(2,3-dichlorophenyl)phenyl]-4-oxo-1H-quinoline-3-carboxamide] | < 10 µM | ++ (between 25% to 100%) |
| O=C(Nc1ccc(N2CCC[C@H]2C(=O)O)cc1C(F)(F)F)c1c[nH]c2ccccc2c1=O [Compound 567, (S)-1-[4-[(4-oxo-1H-quinolin-3-yl)carbonylamino]-3-(trifluoromethyl)phenyl]pyrrolidine-2-carboxylic acid] | < 10 µM | ++ (between 25% to 100%) |
| CC(C)(C)c1cc2cc[nH]c2cc1NC(=O)c1c[nH]c2cc(OC(F)(F)F)ccc2c1=O [Compound 632, 4-oxo-N-(5-tert-butyl-1H-indol-6-yl)-7-(trifluoromethoxy)-1H-quinoline-3-carboxamide] | < 10 µM | ++ (between 25% to 100%) |
| O=C(Nc1ccccc1-c1cc2ccccc2[nH]1)c1c[nH]c2ccccc2c1=O [Compound 38, N-[2-(1H-indol-2-yl)phenyl]-4-oxo-1H-quinoline-3-carboxamide] | < 10 µM | ++ (between 25% to 100%) |
| CC(C)(C)c1ccc(NC(=O)c2c[nH]c3ccc(F)cc3c2=O)cc1O [Compound 490, 6-fluoro-N-(3-hydroxy-4-tert-butyl-phenyl)-4-oxo-1H-quinoline-3-carboxamide] | < 10 µM | ++ (between 25% to 100%) |
| CCCCc1ccc(NC(=O)c2c[nH]c3ccccc3c2=O)cc1 [Compound 324, N-(4-butylphenyl)-4-oxo-1H-quinoline-3-carboxamide] | < 10 µM | ++ (between 25% to 100%) |
| O=C(Nc1ccccc1Cc1ccccc1)c1c[nH]c2ccccc2c1=O [Compound 265, N-(2-benzylphenyl)-4-oxo-1H-quinoline-3-carboxamide] | < 10 µM | ++ (between 25% to 100%) |
| CC(C)(C)c1cc(F)c(NC(=O)c2c[nH]c3cccc(F)c3c2=O)cc1O [Compound 610, 5-fluoro-N-(2-fluoro-5-hydroxy-4-tert-butyl-phenyl)-4-oxo-1H-quinoline-3-carboxamide] | < 10 µM | ++ (between 25% to 100%) |
| O=C(Nc1ccccc1-c1ccc(F)c(F)c1)c1c[nH]c2ccccc2c1=O [Compound 76, N-[2-(3,4-difluorophenyl)phenyl]-4-oxo-1H-quinoline-3-carboxamide] | < 10 µM | ++ (between 25% to 100%) |
| O=C(Nc1ccc2ccccc2c1)c1c[nH]c2ccccc2c1=O [Compound 481, N-(2-naphthyl)-4-oxo-1H-quinoline-3-carboxamide] | < 10 µM | ++ (between 25% to 100%) |
| COc1ccc(NC(=O)c2c[nH]c3ccccc3c2=O)cc1OC [Compound 122, N-(3,4-dimethoxyphenyl)-4-oxo-1H-quinoline-3-carboxamide] | 25 to 60 µM | + (<25%) |
